Like-named read-outs stand apart in the source and are kept apart here.
Legend:
Test in all cases: Glasshouse assay for herbicidal activity (pre- and post-emergence), percentage phytotoxicity
Format in all cases: in vivo
[1] = test system: Echinochloa crus-galli (ECHCG); conditions: Echinochloa crus-galli, 250 g/ha, visual assessment (100%=total damage, 0%=no damage)
How it was run: (§1)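 Sow seed in standard soil in pots; apply test herbicide after 1 day (PRE) or about 12 days (POST). Grow on in the glasshouse, watering twice daily, cool-season species at 20/16 °C and warm-season at 24/18 °C. Score visible damage (0–100%) at 20 or 15 DAA respectively.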

Lolium perenne (LOLPE) = conditions: Lolium perenne, 250 g/ha, visual assessment (100%=total damage, 0%=no damage)
How it was run: as §1

[2] = test system: Alopecurus myosuroides (ALOMY); conditions: Alopecurus myosuroides, 250 g/ha, visual assessment (100%=total damage, 0%=no damage)
How it was run: as §1

Avena fatua (AVEFA) = conditions: Avena fatua, 250 g/ha, visual assessment (100%=total damage, 0%=no damage)
How it was run: as §1

[3] = post-emergence, 360 h, post-emergence, 15 DAA, read-out: Post-emergence herbicidal activity (percentage phytotoxicity) ECHCG POST
[4] = pre-emergence, 480 h, pre-emergence, 20 DAA, read-out: Pre-emergence herbicidal activity (percentage phytotoxicity) ECHCG PRE
[5] = post-emergence, 360 h, post-emergence, 15 DAA, read-out: Post-emergence herbicidal activity (percentage phytotoxicity) LOLPE POST
[6] = pre-emergence, 480 h, pre-emergence, 20 DAA, read-out: Pre-emergence herbicidal activity (percentage phytotoxicity) LOLPE PRE
[7] = post-emergence, 360 h, post-emergence, 15 DAA, read-out: Post-emergence herbicidal activity (percentage phytotoxicity) ALOMY POST
[8] = pre-emergence, 480 h, pre-emergence, 20 DAA, read-out: Pre-emergence herbicidal activity (percentage phytotoxicity) ALOMY PRE
[9] = post-emergence, 360 h, post-emergence, 15 DAA, read-out: Post-emergence herbicidal activity (percentage phytotoxicity) AVEFA POST
[10] = pre-emergence, 480 h, pre-emergence, 20 DAA, read-out: Pre-emergence herbicidal activity (percentage phytotoxicity) AVEFA PRE

SMILES	pest or weed control at 250 g/ha [1, 3] [%]	pest or weed control at 250 g/ha [1, 4] [%]	pest or weed control at 250 g/ha (Lolium perenne (LOLPE); [5]) [%]	pest or weed control at 250 g/ha (Lolium perenne (LOLPE); [6]) [%]	pest or weed control at 250 g/ha [2, 7] [%]	pest or weed control at 250 g/ha [2, 8] [%]	pest or weed control at 250 g/ha (Avena fatua (AVEFA); [9]) [%]	pest or weed control at 250 g/ha (Avena fatua (AVEFA); [10]) [%]
Cc1cc(C)c(C2C(=O)CC(CC(=O)NC(C)(C)C#N)C2=O)c(C)c1 (centres unmarked) [Compound B43]	60	40	80	60	80	70	80	30
C=C(C)CNC(=O)CC1CC(=O)C(c2c(C)cc(C)cc2C)C1=O (centres unmarked) [Compound B44]	90	90	90	100	90	90	90	60
C#CCN(CC#C)C(=O)CC1CC(=O)C(c2c(C)cc(C)cc2C)C1=O (centres unmarked) [Compound B45]	80	60	80	80	80	70	80	10
Cc1cc(C)c(C2C(=O)CC(CC(=O)NC/C=C/Cl)C2=O)c(C)c1 (centres unmarked) [Compound B46]	90	90	90	100	90	90	90	60
C/C=C/CNC(=O)CC1CC(=O)C(c2c(C)cc(C)cc2C)C1=O (centres unmarked) [Compound B47]	90	90	90	100	90	90	80	60
Cc1cc(-c2ncc(Cl)cc2C#N)cc(C)c1C1C(=O)CC(CC(=O)NC(C)(C)C)C1=O (centres unmarked) [Compound B48]	100	90	90	80	80	90	80	30
Cc1cc(-c2ncc(Cl)cn2)cc(C)c1C1C(=O)C[C@@H](CC(=O)NC(C)(C)C)C1=O (some centres unmarked) [Compound B49]	100	100	100	100	100	100	100	90
Cc1cc(-c2ncc(Cl)cn2)cc(C)c1C1C(=O)C[C@H](CC(=O)NC(C)(C)C)C1=O (some centres unmarked) [Compound B50]	100	100	100	100	100	90	90	70
Cc1cc(-c2ncc(F)cc2F)cc(C)c1C1C(=O)C[C@@H](CC(=O)NC(C)(C)C)C1=O (some centres unmarked) [Compound B51]	100	100	100	100	100	90	100	80
Cc1cc(-c2ncc(F)cc2F)cc(C)c1C1C(=O)C[C@H](CC(=O)NC(C)(C)C)C1=O (some centres unmarked) [Compound B52]	100	90	100	100	100	90	90	70

From patent US10206394B2, “Herbicidal compounds” (Syngenta Participations AG, priority 2014, dated 2019)
